# Experimental data: the Kinase Knowledgebase extract (Sharma et al. 2016)
# Target: CDK2 (UniProt P24941)
# Assay: Enzyme Assay
row,SMILES,IC50
1,O=C1NC(=O)C(c2cncc3ccoc23)=C1c1cn2c3c(cccc13)CN(C(=O)N1CCCCC1)CC2,35.7 nM
2,CN(C)C(=O)N1CCn2cc(C3=C(c4cnn5ccccc45)C(=O)NC3=O)c3cccc(c32)C1,2200 nM
3,O=C1NC(=O)C(c2cncc3ccoc23)=C1c1cn2c3c(cccc13)CN(C(=O)N1CCOCC1)CC2,39.2 nM
4,CC(=O)N1CCn2cc(C3=C(c4cccc5ccsc45)C(=O)NC3=O)c3cccc(c32)C1,76 nM
5,CC(=O)N1CCn2cc(C3=C(c4cccc5c4OCC5)C(=O)NC3=O)c3cccc(c32)C1,17.6 nM
6,CC(=O)N1CCn2cc(C3=C(c4cccc5c4OCO5)C(=O)NC3=O)c3cccc(c32)C1,60 nM
7,O=C1NC(=O)C(c2cnn3ccccc23)=C1c1cn2c3c(cccc13)CN(C(=O)N1CCOCC1)CC2,3030 nM
8,CN(C)C(=O)N1CCn2cc(C3=C(c4cccc5c4OCO5)C(=O)NC3=O)c3cccc(c32)C1,445 nM
9,O=C1NC(=O)C(c2cnc3cnccn23)=C1c1cn2c3c(cccc13)CN(C(=O)N1CCCCC1)CC2,> 20000 nM
10,O=C1NC(=O)C(c2cnc3ccccn23)=C1c1cn2c3c(cccc13)CN(C(=O)C1CCOCC1)CC2,5500 nM
11,CN(C)C(=O)N1CCn2cc(C3=C(c4cccc5ccoc45)C(=O)NC3=O)c3cccc(c32)C1,67.5 nM
12,O=C1NC(=O)C(c2cnc3ncccn23)=C1c1cn2c3c(cccc13)CN(C(=O)N1CCCCC1)CC2,> 20000 nM
13,CN(C)C(=O)N1CCn2cc(C3=C(c4cncc5ccoc45)C(=O)NC3=O)c3cccc(c32)C1,15.6 nM
14,CC(=O)N1CCn2cc(C3=C(c4cncc5ccoc45)C(=O)NC3=O)c3cccc(c32)C1,8.1 nM
15,O=C1NC(=O)C(c2cnc3cccnn23)=C1c1cn2c3c(cccc13)CN(C(=O)N1CCCCC1)CC2,434 nM
16,CC(C)C(=O)N1CCn2cc(C3=C(c4cnn5ccccc45)C(=O)NC3=O)c3cccc(c32)C1,1630 nM
17,O=C1NC(=O)C(c2cnc3ncccn23)=C1c1cn2c3c(cccc13)CN(C(=O)N1CCOCC1)CC2,> 20100 nM
18,CCC(=O)N1CCn2cc(C3=C(c4cncc5ccoc45)C(=O)NC3=O)c3cccc(c32)C1,13 nM
19,O=C1NC(=O)C(c2cnc3cnccn23)=C1c1cn2c3c(cccc13)CN(C(=O)N1CCOCC1)CC2,> 20200 nM
20,CC(=O)N1CCn2cc(C3=C(c4cccc5ccoc45)C(=O)NC3=O)c3cccc(c32)C1,10.5 nM

# Further lines, results first:
row,IC50,SMILES
1,363 nM,Cn1ccc2c(C3=C(c4cn5c6c(cccc46)CNCC5)C(=O)NC3=O)cccc21
2,205 nM,O=C1NC(=O)C(c2cn3c4c(cccc24)CNCC3)=C1c1cccc2occc12
3,756 nM,O=C1NC(=O)C(c2cnc3ccccn23)=C1c1cn2c3c(cccc13)CNCC2
4,750 nM,O=C1NC(=O)C(c2cnn3ccccc23)=C1c1cn2c3c(cccc13)CNCC2
5,3560 nM,CC(C)C(=O)N1CCn2cc(C3=C(c4cnc5ccccn45)C(=O)NC3=O)c3cccc(c32)C1
6,7590 nM,O=C1NC(=O)C(c2cnc3ccncn23)=C1c1cn2c3c(cccc13)CNCC2
7,90 nM,O=C1NC(=O)C(c2cccc3ccsc23)=C1c1cn2c3c(cccc13)CNCC2
8,> 20000 nM,O=C1NC(=O)C(c2cnc3ccncn23)=C1c1cn2c3c(cccc13)CN(C(=O)N1CCOCC1)CC2
9,1130 nM,O=C1NC(=O)C(c2cn3c4c(cccc24)CNCC3)=C1c1ccc2c(c1)OCO2
10,8760 nM,O=C1NC(=O)C(c2cnc3ncccn23)=C1c1cn2c3c(cccc13)CNCC2
11,6.4 nM,O=C1NC(=O)C(c2cncc3ccoc23)=C1c1cn2c3c(cccc13)CNCC2
12,91 nM,O=C1NC(=O)C(c2cn3c4c(cccc24)CNCC3)=C1c1cccc2c1OCO2
13,5580 nM,O=C1NC(=O)C(c2cnc3cnccn23)=C1c1cn2c3c(cccc13)CNCC2
14,67.2 nM,O=C1NC(=O)C(c2cnc3cccnn23)=C1c1cn2c3c(cccc13)CNCC2
15,10.2 nM,O=C1NC(=O)C(c2cccc3ccoc23)=C1c1cn2c3c(cccc13)CNCC2
16,33 nM,O=C1NC(=O)C(c2cn3c4c(cccc24)CNCC3)=C1c1cccc2c1OCC2
17,297 nM,O=C1NC(=O)C(c2cn3c4c(cccc24)CNCC3)=C1c1cccc2c1ccn2CCCO
18,629 nM,CC(=O)N1CCn2cc(C3=C(c4cnc5ccccn45)C(=O)NC3=O)c3cccc(c32)C1
